Assays:
Assay type in all cases: physicochemical
[1] = Water content by thermogravimetric analysis (TGA); settings: for Loss in weight / Nature of the solvent: TGA; for Loss in weight: from 25° C., 10° C./min, nitrogen purge; for Nature of the solvent: solvent lost; for Hydration state: from TGA curve
Protocol: The water content of the five above salts was studied by thermogravimetric analysis (TGA).
The TGA tests are carried out in a TA8000 device equipped with a TGA850 module. The temperature calibrations are carried out conventionally using the melting of indium.
The experimental parameters employed were:
Final temperature: 250° C. for the dihydrochloride, 300° C. for the fumarate, 200° C. or 250° C. for the dihydrogensulfate, 250° C. or 300° C. for the dibesylate and the besylate.
The system is purged using nitrogen at a flow rate of 70 ml/min.
The pans used were 70 μl silica pans.

[2] = Chemical stability of salts exposed to heat and moisture, measured by HPLC; settings: for Purity after 14 days at 80° C./80% RH: 14 days at 80° C. and 80% relative humidity; for Initial purity: before exposure (baseline of stability study)
Protocol: The chemical stability of the compound of formula (I) in the dihydrochloride, dihydrogensulfate, fumarate, dibenzenesulfonate and monobenzenesulfonate forms was studied.
Each of the five above salts is exposed to heat, to moisture and to light under the conditions below: • 14 days at a temperature of 80° C., • 14 days at a temperature of 80° C. and a relative humidity (RH) level of 80%, • exposure to light of 400 W.Hrs.m^−2.

[3] = Water sorption isotherms (DVS); settings: 25° C.
Protocol: The DVS tests are carried out using a DVS-1 system. From 20 to 32 mg of product are used per analysis and the temperature is maintained at 25° C. plus or minus 0.2° C. Nitrogen is used as carrier gas at a flow rate of 100 ml/min in the sample chamber.

Compound	Loss in weight [1]	Nature of the solvent [1]	Hydration state [1]	Purity after 14 days at 80° C. [2]	Purity after 14 days at 80° C./80% RH [2]	Initial purity [2]	Hygroscopicity (sorption isotherms), in words [3]	Hysteresis in sorption/desorption [3]	Water acquired during the sorption cycle ([3]; between 30 and 80% relative humidity)
FC(F)(F)c1cccc(C2=CCN(CCc3ccc4ccncc4c3)CC2)c1.O=S(=O)(O)c1ccccc1 [Besylate, 7-(2-(4-(3-(trifluoromethyl)phenyl)-1,2,3,6-tetrahydropyrid-1-yl)ethyl)isoquinoline besylate]	0.11 % weight/weight	Water	not hydrated	97.9%	96.5%	98.2%	least hygroscopic of all the salts tested	No hysteresis	
FC(F)(F)c1cccc(C2=CCN(CCc3ccc4ccncc4c3)CC2)c1.O=S(=O)(O)c1ccccc1.O=S(=O)(O)c1ccccc1 [Dibesylate]	0.72 % weight/weight	Water		97.5%	96.2%	97.5%	significant acquisition of water	hystereses observed during the desorption	
Cl.Cl.FC(F)(F)c1cccc(C2=CCN(CCc3ccc4ccncc4c3)CC2)c1 [Dihydrochloride]	11.0 % weight/weight	Water	three water molecules per mole of anhydrous salt	95.6%	92.9%	97.0%		weak hysteresis	1.9 % weight/weight
FC(F)(F)c1cccc(C2=CCN(CCc3ccc4ccncc4c3)CC2)c1.O=S(=O)(O)O.O=S(=O)(O)O [Dihydrogensulfate]	2.06 % weight/weight	Solvent + water		91.9%	88.5%	93.3%	significant acquisition of water	hystereses observed during the desorption	
Fumarate	0.45 % weight/weight	Solvent + water		96.7%	32.4%	97.9%	weakly hygroscopic		

Reference: patent publication US20080085917A1, “7-(2-(4-(3-TRIFLUOROMETHYL-PHENYL)-1,2,3,6-TETRAHYDROPYRID-1-YL)ETHYL)ISOQUINOLINE BESYLATE SALT, PREPARATION AND THERAPEUTIC USE THEREOF” (sanofi-aventis, priority 2005, published 2008)
